Measurements as given in PMC10797614, “MYC-Targeting Inhibitors Generated from a Stereodiversified Bicyclic Peptide Library” (Journal of the American Chemical Society, 2024).
*1 amine or outer side, *2 acyl side, *3 side chain or, on linkers, in order; H or OH if unused. Where a SMILES comes first, the peptide text is derived from it. Bridges are numbered along the chain shown (N, C = ends). X1 = O=C([C@@H]1C[C@H](C=CCO[*:3])C[C@@H]1C=CCO[*:1])[*:2]

How the values were obtained:
[1] = free peptide; liposomes therefore used as delivery vehicles
MYC = target: T1, MYC (Homo sapiens, UniProt P01106); assay: Cellular thermal shift assay (CETSA) with U87 cell lysate; type: binding; conditions: U87 cell lysate 1.481 mg/mL, 195 μL lysate + 19.5 μL peptide (1 mM in PBS); 50 to 65 °C for 3 min; Western blot; versus control
T1 construct: made in house; host or cells: E. coli BL21(DE3)
T1 sequence (P01106 16-454): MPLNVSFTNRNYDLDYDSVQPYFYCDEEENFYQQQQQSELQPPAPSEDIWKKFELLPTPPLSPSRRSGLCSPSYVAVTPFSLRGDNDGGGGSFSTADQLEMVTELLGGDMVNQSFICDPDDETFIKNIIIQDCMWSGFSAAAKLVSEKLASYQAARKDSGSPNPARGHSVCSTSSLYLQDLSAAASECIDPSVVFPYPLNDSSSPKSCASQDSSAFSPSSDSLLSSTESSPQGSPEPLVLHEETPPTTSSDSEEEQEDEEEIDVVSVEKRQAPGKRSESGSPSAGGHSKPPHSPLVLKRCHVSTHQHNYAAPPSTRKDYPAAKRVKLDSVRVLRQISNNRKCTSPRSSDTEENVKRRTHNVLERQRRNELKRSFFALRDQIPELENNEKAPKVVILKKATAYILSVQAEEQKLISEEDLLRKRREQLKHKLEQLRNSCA
Procedure: To validate that NT-B2R could bind to MYC in complex biological environments, we performed cellular thermal shift assays using U87 cell lysates[34] (Figure 4A). U87 is a human glioblastoma cell line with known dependence on MYC activities.[35]−[37]
Liposome loading capacity quantification
200 μL of the liposome solution (4 mg/mL) was dried under vacuum and extracted with 50 μL of DMSO. The obtained solution was analyzed on a reverse-phase HPLC and the corresponding peptide peak was identified by mass spectrometry. The peptide concentration was then determined by comparing the peak area to that of a standard solution. The loading capacities were calculated accordingly.
Cells were seeded in a 96-well plate at 4 k/well and incubated overnight. Afterward, the cells were washed with complete media and treated with varying concentrations of peptide-loaded liposome or empty liposome. The final media volume was 200 μL in each well. […] The 96-well plate was shaken for 15 min on an orbital mixer in dark, and the fluorescence (540 nm excitation, 590 nm emission) intensities were read by a […]
U87 cells were detached by trypsin and resuspended in 5 mL of PBS(1x). […] The protein concentrations were determined by BCA assay.
To prepare the sample for the cellular thermal shift assay, the quantified cell lysate was adjusted to a final concentration of 1.481 mg/mL with lysis buffer. […]

[2] = system: MYC and phosphor-MYC (p-MYC, T58); assay: Western blot of MYC and phosphor-MYC levels in treated U87 cells; type: cell-based, human; conditions: liposome-delivered peptide
Text: We then evaluated the biological effects of NT-B2R in cells.

[3] = system: MYC transcription activity (HALLAMRK MYC TARGETS V1 gene set); assay: RNA-seq, differential expression (DESeq) and GSEA in U87 cells; type: cell-based, human; conditions: treated vs vehicle, p-value < 0.001, FDR 0.005
Text: To test whether NT-B2R directly affected MYC activity, we performed RNA-seq on the U87 cells and evaluated the differentially expressed genes using DESeq. […] A caveat here is that a global shift of transcription activities will not be observable by this analysis, due to the embedded normalization procedure.[38] Nevertheless, gene set enrichment analysis (GSEA) results highlighted that MYC target gene sets were enriched with high statistical significance and low false discovery probabilities, supporting that MYC was NT-B2R’s main target (Figure 4G).
U87 cells were seeded in six 100x20 mm cell culture dishes at 1000 k/dish and incubated for 24h in full DMEM medium containing 10% FBS and 1% PS. […]
Total RNA of the harvested cells was extracted and purified using the RNeasy Micro Kit (QIAGEN). Following the extraction, RNA integrity and quantitation were assessed using the RNA Nano 6000 Assay Kit on the Bioanalyzer 2100 system (Agilent Technologies). […] The obtained six library samples were pooled together and sequenced on a NovaSeq 6000 (Illumina) to reach approximately 30M 150bp pair-end reads per sample.
The obtained sequencing data was preprocessed using TrimGalore, aligned using STAR, and counted using HTSeq. […]

With `CC(C)C[C@@H]1NC(=O)[C@H](CCCNC(=N)N)NC(=O)[C@@H]2CCCCNC(=O)[C@@H]3C[C@H](C=CCOC(=O)CC[C@@H](C(N)=O)NC1=O)C[C@@H]3C=CCOC(=O)CC[C@H](N)C(=O)N[C@@H](Cc1c[nH]c3ccccc13)C(=O)N1CCC[C@H]1C(=O)N[C@@H](Cc1c[nH]cn1)C(=O)N[C@@H](CCCNC(=N)N)C(=O)N2` [NT-B2R] (H-EWPHRKRLE-NH2; linker 1-6-9 via X1; N-terminus and C-terminus assumed) the “cell permeability (in words)” value [1] was “not cell-permeable”, the “increase of MYC melting temperature, CETSA” value (MYC) was about 2 ° and the “expression and phosphorylation levels of MYC (Western blot)” value [2] was “did not alter”. For the same compound, the “GSEA normalized enrichment score (NES), HALLAMRK MYC TARGETS V1” value [3] was −5.955.
